# Experimental data as given in ChEMBL document CHEMBL4266047, “First Report of Plant-Derived β-Sitosterol with Antithrombotic, in Vivo Anticoagulant, and Thrombus-Preventing Activities in a Mouse Model” (J Nat Prod, 2018).
# Calls of active or inactive are those of the source. No cut-off for these calls is given here.
# Assays:
# Mus musculus [1] = assay: Anticoagulant activity in Swiss albino mouse assessed as increase in prothrombin time at 50 mg/kg, iv measured after 5 hrs relative to control; format: functional
# Mus musculus [2] = assay: Anticoagulant activity in Swiss albino mouse assessed as increase in activated partial thromboplastin time at 50 mg/kg, iv measured after 5 hrs relative to control; format: functional
# Mus musculus [3] = assay: Anticoagulant activity in Swiss albino mouse assessed as tail bleeding time at 50 mg/kg, iv measured after 5 hrs (reference value: 45.3 +/- 2.5 sec); format: functional
# Mus musculus [4] = assay: Anticoagulant activity in Swiss albino mouse assessed as plasma clotting time at 50 mg/kg, iv measured after 5 hrs (reference value: 175.5 +/- 9.1 sec); format: functional
# Prothrombin [5] = biological target: T1, Prothrombin (Homo sapiens, UniProt P00734); assay: Inhibition of human thrombin at 7.5 uM using T1637 as substrate preincubated for 30 mins followed by heparin addition by SDS-PAGE analysis
# Plasma [6] = assay: Anticoagulant activity in human platelet poor plasma assessed as prolongation of calcium clotting time after 3 mins; format: functional, cell-free
# Plasma [7] = assay: Anticoagulant activity in human platelet poor plasma assessed as prolongation of calcium clotting time at 2.5 uM after 3 mins; format: functional, cell-free
# Plasma [8] = assay: Anticoagulant activity in human platelet poor plasma assessed as prolongation of calcium clotting time at 2.5 uM; format: functional, cell-free; conditions: TDE = time-dependent effect
# Plasma [9] = assay: Anticoagulant activity in human platelet poor plasma assessed as activated partial thromboplastin time at 10 uM after 3 mins (reference value: 14.2 +/- 1.3 sec); format: functional
# Plasma [10] = assay: Anticoagulant activity in human platelet poor plasma assessed as increase in prothrombin time at 1.25 to 15 uM after 3 mins; format: functional, cell-free
# Blood [11] = assay: Anticoagulant activity in goat whole blood assessed as prolongation of calcium clotting time after 3 mins; format: functional, tissue-based; conditions: Capra hircus
# Prothrombin [12] = biological target: T1, Prothrombin; assay: Uncompetitive inhibition of human thrombin using T1637 as substrate by Michaelis-Menten plot analysis
# Prothrombin [13] = biological target: T1, Prothrombin; assay: Inhibition of human thrombin using T1637 as substrate
# Prothrombin [14] = biological target: T1, Prothrombin; assay: Inhibition of human thrombin assessed as prolongation of fibrinogen clotting time of thrombin
# [15] = biological target: Coagulation factor X (Homo sapiens) (UniProt P00742); assay: Inhibition of human factor 10a assessed as prothrombin activation using F3301 as substrate
# Chain of Coagulation factor X (Homo sapiens) (P00742 41-179 limits assumed): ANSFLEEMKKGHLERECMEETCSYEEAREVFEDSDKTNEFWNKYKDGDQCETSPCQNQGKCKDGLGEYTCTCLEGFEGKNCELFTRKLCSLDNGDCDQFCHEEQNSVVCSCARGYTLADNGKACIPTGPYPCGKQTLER
# Chain of Coagulation factor X (Homo sapiens) (P00742 235-488 limits assumed): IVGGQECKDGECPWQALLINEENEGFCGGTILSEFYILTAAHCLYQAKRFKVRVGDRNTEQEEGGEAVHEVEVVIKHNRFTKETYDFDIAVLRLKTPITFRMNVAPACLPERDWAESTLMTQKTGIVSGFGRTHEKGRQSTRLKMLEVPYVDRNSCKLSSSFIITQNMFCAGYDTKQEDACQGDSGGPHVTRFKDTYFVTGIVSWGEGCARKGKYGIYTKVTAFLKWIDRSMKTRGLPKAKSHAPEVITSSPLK
# Heterodera schachtii [16] = assay: Inhibition of human fibrinogen at 5 uM after 120 mins by SDS-PAGE analysis
# [17] = biological target: Coagulation factor X (Homo sapiens) (UniProt P00742); assay: Binding affinity to human factor 10a at 1.25 to 15 uM after 3 mins by fluorescence spectrometric analysis
# Heterodera schachtii [18] = assay: Binding affinity to human fibrinogen at 1.25 to 15 uM after 3 mins by fluorescence spectrometric analysis
# Prothrombin [19] = biological target: T1, Prothrombin; assay: Binding affinity to human thrombin at 1.25 to 15 uM after 3 mins by fluorescence spectrometric analysis
# Prothrombin [20] = biological target: T1, Prothrombin; assay: Binding affinity to human thrombin by isothermal calorimetric titration method
# HEK293 = assay: Cytotoxicity against HEK293 cells assessed as decrease in cell viability at 50 uM after 24 hrs by MTT assay; format: cell-based; conditions: human, hek293, 24 h
# Prothrombin [21] = biological target: T1, Prothrombin; assay: Inhibition of thrombin in human platelet rich plasma assessed as reduction in thrombin-induced platelet aggregation after 5 mins
# Prothrombin [22] = biological target: T1, Prothrombin; assay: Inhibition of thrombin in human washed platelets assessed as reduction in thrombin-induced platelet aggregation after 5 mins
# Blood [23] = assay: Thrombolytic activity in goat non-heated blood clot assessed as clot lysed after 3 hrs (reference value: 2.1 +/- 0.3 mg/microM); format: functional, Capra hircus
# Blood [24] = assay: Thrombolytic activity in goat heated blood clot assessed as clot lysed after 3 hrs (reference value: 0.7 +/- 0.2 mg/microM); format: functional, Capra hircus
# Blood [25] = assay: Thrombolytic activity in goat heated blood clot assessed as plasmin activation at 1 uM using V0882 as substrate incubated for 20 mins measured for 15 mins in presence of serine protease inhibitor PMSF; format: functional, tissue-based; conditions: Capra hircus
# Blood [26] = assay: Thrombolytic activity in goat non-heated blood clot assessed as plasmin activation at 1 uM using V0882 as substrate incubated for 20 mins measured for 15 mins; format: functional, Capra hircus
# Blood [27] = assay: Thrombolytic activity in goat heated blood clot assessed as plasmin activation at 1 uM using V0882 as substrate incubated for 20 mins measured for 15 mins; format: functional, Capra hircus
# Blood [28] = assay: Thrombolytic activity in goat non-heated blood clot assessed as plasmin activation at 1 uM using V0882 as substrate incubated for 20 mins measured for 15 mins in presence of serine protease inhibitor PMSF; format: functional, tissue-based; conditions: Capra hircus
# Erythrocyte = assay: Hemolytic activity against human erythrocytes assessed as hemolysis at 2.5 to 50 uM after 90 mins; format: ADME, cell-based; conditions: 1.5 h
# Mus musculus [29] = assay: Defibrinogenation activity in Swiss albino mouse plasma at 50 mg/kg, iv measured after 5 hrs; format: functional, organism-based
# Mus musculus [30] = assay: Antithrombotic activity in Swiss albino mouse tail thrombosis model assessed as inhibition of k-carrageenan-induced thrombus formation at 12.5 mg/kg, po administered for one week followed by k-carrageenan challenge 30 mins post last compound dose and measured after 24 hrs; format: functional
# Mus musculus [31] = assay: Antithrombotic activity in Swiss albino mouse tail thrombosis model assessed as inhibition of k-carrageenan-induced thrombus formation at 25 mg/kg, po administered for one week followed by k-carrageenan challenge 30 mins post last compound dose and measured after 24 hrs; format: functional
# Mus musculus [32] = assay: Antithrombotic activity in Swiss albino mouse tail thrombosis model assessed as inhibition of k-carrageenan-induced thrombus formation at 50 mg/kg, po administered for one week followed by k-carrageenan challenge 30 mins post last compound dose and measured after 24 hrs; format: functional
# Mus musculus [33] = assay: Antithrombotic activity in Swiss albino mouse tail thrombosis model assessed as inhibition of k-carrageenan-induced thrombus formation at 12.5 mg/kg, po administered for one week followed by k-carrageenan challenge 30 mins post last compound dose and measured after 48 hrs; format: functional
# Mus musculus [34] = assay: Antithrombotic activity in Swiss albino mouse tail thrombosis model assessed as inhibition of k-carrageenan-induced thrombus formation at 25 mg/kg, po administered for one week followed by k-carrageenan challenge 30 mins post last compound dose and measured after 48 hrs; format: functional
# Mus musculus [35] = assay: Antithrombotic activity in Swiss albino mouse tail thrombosis model assessed as inhibition of k-carrageenan-induced thrombus formation at 50 mg/kg, po administered for one week followed by k-carrageenan challenge 30 mins post last compound dose and measured after 48 hrs; format: functional
# Mus musculus [36] = assay: Antithrombotic activity in Swiss albino mouse tail thrombosis model assessed as inhibition of k-carrageenan-induced thrombus formation at 12.5 mg/kg, po administered for one week followed by k-carrageenan challenge 30 mins post last compound dose and measured after 72 hrs; format: functional
# Mus musculus [37] = assay: Antithrombotic activity in Swiss albino mouse tail thrombosis model assessed as inhibition of k-carrageenan-induced thrombus formation at 25 mg/kg, po administered for one week followed by k-carrageenan challenge 30 mins post last compound dose and measured after 72 hrs; format: functional
# Mus musculus [38] = assay: Antithrombotic activity in Swiss albino mouse tail thrombosis model assessed as inhibition of k-carrageenan-induced thrombus formation at 50 mg/kg, po administered for one week followed by k-carrageenan challenge 30 mins post last compound dose and measured after 72 hrs; format: functional
# Mus musculus [39] = assay: Antithrombotic activity in Swiss albino mouse tail thrombosis model assessed as inhibition of k-carrageenan-induced thrombus formation administered orally for one week followed by k-carrageenan challenge 30 mins post last compound dose and measured after 24 to 72 hrs; format: functional, organism-based
# Platelet [40] = assay: Antiplatelet activity in human platelet rich plasma up to 10 uM incubated for 5 mins measured after 300 secs; format: functional, cell-based
# Platelet [41] = assay: Antiplatelet activity in human washed platelets up to 10 uM incubated for 5 mins measured after 300 secs; format: functional, cell-based
smiles,measurement,setting,value
CC1CNc2c(cccc2S(=O)(=O)N[C@@H](CCCNC(=N)N)C(=O)N2CC[C@@H](C)C[C@@H]2C(=O)O)C1 (some centres not stated) [ARGATROBAN],fold change (FC),Mus musculus [1],4
same,fold change (FC),Mus musculus [2],2.3
same,Time,Mus musculus [3],143.5 s
same,Time,Mus musculus [4],238.6 s
CC[C@H](CC[C@@H](C)[C@H]1CC[C@H]2[C@@H]3CC=C4C[C@@H](O)CC[C@]4(C)[C@H]3CC[C@]12C)C(C)C [BETA-SITOSTEROL],inhibition,Prothrombin [5],Active
same,Activity,Plasma [6],Dose-dependent effect
same,Activity,Plasma [7],Active
same,Activity,Plasma [8],Tde
same,APTT,Plasma [9],28.2 s
same,Activity,Plasma [10],Active
same,Activity,Blood [11],Dose-dependent effect
same,Ki,Prothrombin [12],0.267 µM
same,inhibition,Prothrombin [13],Dose-dependent effect
same,inhibition,Prothrombin [14],Dose-dependent effect
same,inhibition,[15],inactive
same,inhibition,Heterodera schachtii [16],inactive
same,Activity,[17],inactive
same,Activity,Heterodera schachtii [18],inactive
same,Activity,Prothrombin [19],Active
same,Ka,Prothrombin [20],109 M⁻¹
same,Activity,HEK293,Non-Toxic
same,inhibition,Prothrombin [21],Dose-dependent effect
same,inhibition,Prothrombin [22],Dose-dependent effect
same,Activity,Blood [23],7.7 mg/µM
same,Activity,Blood [24],1 mg/µM
same,Activity,Blood [25],Active
same,Activity,Blood [26],15.8 mg/µM
same,Activity,Blood [27],9.2 mg/µM
same,Activity,Blood [28],Active
same,Activity,Erythrocyte,Non-Toxic
same,fold change (FC),Mus musculus [1],1.1
same,fold change (FC),Mus musculus [2],1.6
same,Time,Mus musculus [3],61 s
same,Time,Mus musculus [4],193.5 s
same,Activity,Mus musculus [29],inactive
same,inhibition in vivo at 12.5 mg/kg,Mus musculus [30],10.5%
same,inhibition in vivo at 25 mg/kg,Mus musculus [31],15.2%
same,inhibition in vivo at 50 mg/kg,Mus musculus [32],23.4%
same,inhibition in vivo at 12.5 mg/kg,Mus musculus [33],14.5%
same,inhibition in vivo at 25 mg/kg,Mus musculus [34],31.3%
same,inhibition in vivo at 50 mg/kg,Mus musculus [35],42.3%
same,inhibition in vivo at 12.5 mg/kg,Mus musculus [36],23.2%
same,inhibition in vivo at 25 mg/kg,Mus musculus [37],36.5%
same,inhibition in vivo at 50 mg/kg,Mus musculus [38],47.3%
same,inhibition,Mus musculus [39],Dose-dependent effect
CC(=O)Oc1ccccc1C(=O)O,Activity,Platelet [40],Active
same,Activity,Platelet [41],Active
